Measured values published in patent US20060204481A1, “Methods of promoting cell viability” (priority 2003, published 2006).

Columns and labels:
[1] = test system: pancreatic islet cells; assay: Apoptosis (TUNEL) of pancreatic islet cells in vitro; format: cell-based; details: 2 days in vitro
Protocol: As another example, TUDCA was also effective in reducing apoptosis of pancreatic islet cells after 2 days in vitro. The number of TUNEL-positive cells was approximately 29 in non-treated controls, but only 12 in cells exposed to TUDCA. The more than 50% reduction by apoptosis by TUDCA was achieved after exposure of cells to TUDCA during the isolation procedure, followed by incubation with the bile acid during culture in vitro.

[2] = test system: 3-NP-lesioned rat; details: systemic administration; cited from earlier work
[3] = test system: TH-immunoreactive neurons in intrastriatal nigral grafts; assay: Graft survival: TH-immunocytochemistry and graft volume 6 weeks after transplantation; format: in vivo, rat
[4] = test system: 6-OHDA lesioned rats; assay: Amphetamine-induced rotation test after nigral grafting in unilateral 6-OHDA lesioned rats; format: in vivo, rat
From the text: A total of 24 adult female Sprague-Dawley (SD) rats, weighing about 250 grams (g) at the beginning of the experiments were used as subjects of neural grafts. Among them, 12 rats were subjected to an extensive unilateral 6-hydroxydopamine (6-OHDA) lesion of the mesostriatal dopamine (DA) system and 12 rats were normal.
The 6-OHDA lesioned rats and normal rats were randomly assigned to the TUDCA-treated (n=6 in each group) or the vehicle control (n=6 in each group) group, respectively. The rats were housed 2 per cage under a 12 hour day-night cycle with ad libitum access to food and water. They were maintained and treated in accordance with published National Institutes of Health guidelines.
For the TUDCA-treated rats, a 50 μM concentration of TUDCA was added to the media when nigral tissue was trypsinized and dissociated. Two microliters of cell suspension containing TUDCA were then stereotaxically injected into the striatum of SD rats. For the control animals, the same amount of vehicle solution was added to the media. In the first series of transplantation experiment, normal rats that received neural transplants were sacrificed 4 days post-grafting and brain sections were prepared for the terminal deoxynucleotidyl transferase (TdT)-mediated dUTP-biotin nick end labeling (TUNEL) assay to determine apoptosis in the transplantation areas. In the second series of transplantation experiments, an amphetamine-induced rotation test was used to assess the completeness of the 6-OHDA lesions prior to grafting, and repeated two and six weeks after transplantation to monitor functional effects of the neural grafts. The rats were sacrificed after the last session of the rotational behavioral test and the brain tissue was processed for tyrosine hydroxylase (TH)-immunocytochemistry. Graft survival was assessed by counting the number of TH-positive neurons in the grafts.
Two injections of 6-OHDA (hydrochloride salt, Sigma, St. Louis Mo.) were made into the right ascending mesostriatal DA pathway under equithesin anaesthesia (0.3 ml/100 g body wt. i.p.) as described previously (W.-M. Duan et al., Neuroscience 57:261-274; 1993). Briefly, a first injection of 2.5 microliter (μl) of 6-OHDA (3 microgram/microliter (μg/μl), free base, in 0.2 mg/ml ascorbate-saline) was performed at the following coordinates: 4.4 millimeter (mm) caudal to bregma; 1.2 mm lateral to midline; 7.8 mm ventral to the dural surface; with the tooth-bar set at 2.4 mm below the interaural line. A second injection of 2 μl of 6-OHDA was performed at the following coordinates; 4.0 millimeter (mm) caudal to bregma; 0.8 mm lateral to midline; 8.0 mm ventral to the dural surface; with the tooth-bar set at 3.4 mm above the interaural line. The 6-OHDA was infused at a rate of 1 μl/min, and the cannula was left in place for an additional 4 min before it was withdrawn.
Two to three weeks after the lesion surgery, the rats were given 5 milligram per kilogram (mg/kg) of d-amphetamine sulphate (Sigma, St. Louis Mo.) in saline, i.p. and their rotational behavior was monitored in automated rotometer bowls for 90 min (U. Ungerstedt et al., Brain Res. 24: 485-493; 1970). […] The rotational test was then repeated at two different time-points as mentioned in the experimental design.
A cell suspension technique was used to perform the neural transplants as previously described (A. Björklund et al., Acta. Physiol. Scand. Suppl. 522:9-18; 1983; P. Brundin et al., In: P. M. Conn, ed., Methods in Neurosciences, Lesions and Transplantation, Academic Press, San Diego, Vol 7, 1991:305-326). Briefly, VM tissue was obtained from embryos with a crown-to-rump length of 13-14 mm, corresponding to a gestational age of embryonic day 14. Dissection and preparation of the donor tissue were carried out under aseptic conditions in Hank's balanced salt solution (HBSS) (Gibco, Carlsbad, Calif.). […]

C[C@H](CCC(=O)NCCS(=O)(=O)O)[C@H]1CC[C@H]2[C@@H]3[C@@H](O)C[C@@H]4C[C@H](O)CC[C@]4(C)[C@H]3CC[C@]12C [TUDCA, tauroursodeoxycholic acid]
number of TUNEL-positive cells ([1]; TUDCA during isolation and culture, non-treated controls approximately 29): 12
reduction of apoptosis ([1]; versus non-treated controls): more than 50%
neurological deficits [2]: ameliorate neurological deficits
striatal degeneration [2]: reduce striatal degeneration
areas of the host striatum reinnervated by the grafts compared to control group [3]: larger
graft volume compared to control group ([3]; p<0.05): significantly larger
mean net rotation values compared to pregrafting values ([4]; 2 weeks after grafting, p<0.01, not in control group): significantly reduced
rats exhibiting at least 50% reduction in net motor asymmetry compared to pre-transplantation values ([4]; 2 weeks after transplantation, cell suspension pre-treated with 50 μM TUDCA, none of the control animals): 4 of 6
net asymmetry values compared to control group ([4]; 2 weeks after transplantation, p<0.05): lower net asymmetry values than the control group
motor asymmetry scores compared to pregrafting ([4]; 6 weeks after surgery, p<0.05, both groups): significantly reduced motor asymmetry scores
difference in motor asymmetry scores between TUDCA-treated and control groups ([4]; 6 weeks after surgery, p>0.05): not longer any difference
reduction in motor asymmetry scores ([4]; 6 weeks following transplantation, all rats of both control and TUDCA-treated groups): > 50%
